The values that follow come from paper PMC7760004, “Hydrocarbon-Stapled Peptide Based-Nanoparticles for siRNA Delivery” (Nanomaterials, 2020).

A short description of series [1]: Circular dichroism, determination of helical content. Type of series: physicochemical. Particulars: water/TFE (95/5). As for the experimental part:
Circular dichroism experiments were carried out using a Jasco J815 spectropolarimeter. Spectra (Jasco, Easton, MD, USA) were typically recorded with 100 μM of peptides dissolved in a water/TFE mixture (95/5), pH 7, using a 1 mm pathlength CD cuvette at 20 °C, over a wavelength range of 190–260 nm. The peptide concentrations were normalized measuring the OD at 490 nm considering a molar coefficient extinction (ε490) for the FITC of 76,900 cm^−1 M^−1. Continuous scanning mode was used, with a response of 1.0 s with 0.1 nm steps and a bandwidth of 2 nm. The signal to noise ratio was improved by acquiring each spectrum over an average of two scans. Baseline was corrected by subtracting the background from the sample spectrum. Alpha helical content was determined using the following equation: % Helix = ([θ])obs × 100)/(−39,500 × (1 − 2.57/n), where ([θ])obs is the mean residue ellipticity at 222 nm and n the number of peptide bonds.
In general terms: Circular dichroism is the unequal absorption of left and right circularly polarised light.

In another series the test system is MDA-MB-231 cells. Briefly: Cellular uptake of FITC-stapled peptides (plate-reader fluorescence). The note with it: MDA-MB-231, 5 µM FITC-peptide, 4 h.

Peptide text beside a SMILES is read from it. * marks the point of attachment. FITC = O=C1OC2(c3ccc(O)cc3Oc3cc(O)ccc32)c2ccc(NC(=S)*)cc21; Ahx = NCCCCCC(=O)O

Procedure for MDA-MB-231 cells: MDA-MB-231 cells were seeded in black 96-well plate in 200 μL of their corresponding medium. After 24 h of cell growth, cells were treated with 5 µM concentration of FITC-stapled peptides for 4 h. Total fluorescence (TF) was measured using CLARIOstar® High Performance Monochromator Multimode Microplate Reader (BMG Labtech, Ortenberg, Germany) at excitation/emission of 483-14/530-30 nm. Cells were washed three times with PBS and remaining fluorescence (RF) was measured using the same conditions. The percentage of uptake values were presented as relative mean fluorescence and normalized with respect to Penetratin used as a standard control and set at 100%.

Turning to `CC[C@H](C)[C@H](NC(=O)[C@H](C)NC(=O)[C@H](CCCNC(=N)N)NC(=O)[C@H](CCCNC(=N)N)NC(=O)CCCCCNC(=S)Nc1ccc2c(c1)C(=O)OC21c2ccc(O)cc2Oc2cc(O)ccc21)C(=O)N[C@H](C(=O)N[C@H](C(=O)N[C@@H](C)C(=O)N[C@@H](CCCNC(=N)N)C(=O)N[C@@H](CCCNC(=N)N)C(=O)N[C@@H](CS)C(N)=O)[C@@H](C)CC)[C@@H](C)CC` [JMV6579] ({FITC-Ahx}-RRAIIIARRC-NH2), the “α Helix (%)” value in series [1] (CD, 100 μM peptide, pH 7, 20 °C, from mean residue ellipticity at 222 nm) stood at 5%. In addition, the “CD profile (folding)” value in series [1] (far-UV CD, 20 °C) was “remained partially unfolded”. Further, the “ability to enter cells (uptake, in words)” value in the series on MDA-MB-231 cells is “almost not able to enter cells”.
